From paper PMC5564600 (Oncotarget, 2017)

Key:
Test in all cases: biochemical
Type in all cases: binding
[1] = target: T1, panel of 442 kinases (Homo sapiens, UniProt O60331); conditions: kinase PIP5K1C; for remaining activity at 1 µM: read-out: % of control at 1 µM
T1 construct: purchased Ambit Biosciences (scanMAXX KINOMEscan)

[2] = target: T2, panel of 442 kinases (Homo sapiens, UniProt P35590); conditions: kinase TIE1; for remaining activity at 1 µM: read-out: TIE1 (% of control at 1 µM)
T2 construct: purchased Ambit Biosciences (scanMAXX KINOMEscan)
T2 sequence (P35590 22-1138): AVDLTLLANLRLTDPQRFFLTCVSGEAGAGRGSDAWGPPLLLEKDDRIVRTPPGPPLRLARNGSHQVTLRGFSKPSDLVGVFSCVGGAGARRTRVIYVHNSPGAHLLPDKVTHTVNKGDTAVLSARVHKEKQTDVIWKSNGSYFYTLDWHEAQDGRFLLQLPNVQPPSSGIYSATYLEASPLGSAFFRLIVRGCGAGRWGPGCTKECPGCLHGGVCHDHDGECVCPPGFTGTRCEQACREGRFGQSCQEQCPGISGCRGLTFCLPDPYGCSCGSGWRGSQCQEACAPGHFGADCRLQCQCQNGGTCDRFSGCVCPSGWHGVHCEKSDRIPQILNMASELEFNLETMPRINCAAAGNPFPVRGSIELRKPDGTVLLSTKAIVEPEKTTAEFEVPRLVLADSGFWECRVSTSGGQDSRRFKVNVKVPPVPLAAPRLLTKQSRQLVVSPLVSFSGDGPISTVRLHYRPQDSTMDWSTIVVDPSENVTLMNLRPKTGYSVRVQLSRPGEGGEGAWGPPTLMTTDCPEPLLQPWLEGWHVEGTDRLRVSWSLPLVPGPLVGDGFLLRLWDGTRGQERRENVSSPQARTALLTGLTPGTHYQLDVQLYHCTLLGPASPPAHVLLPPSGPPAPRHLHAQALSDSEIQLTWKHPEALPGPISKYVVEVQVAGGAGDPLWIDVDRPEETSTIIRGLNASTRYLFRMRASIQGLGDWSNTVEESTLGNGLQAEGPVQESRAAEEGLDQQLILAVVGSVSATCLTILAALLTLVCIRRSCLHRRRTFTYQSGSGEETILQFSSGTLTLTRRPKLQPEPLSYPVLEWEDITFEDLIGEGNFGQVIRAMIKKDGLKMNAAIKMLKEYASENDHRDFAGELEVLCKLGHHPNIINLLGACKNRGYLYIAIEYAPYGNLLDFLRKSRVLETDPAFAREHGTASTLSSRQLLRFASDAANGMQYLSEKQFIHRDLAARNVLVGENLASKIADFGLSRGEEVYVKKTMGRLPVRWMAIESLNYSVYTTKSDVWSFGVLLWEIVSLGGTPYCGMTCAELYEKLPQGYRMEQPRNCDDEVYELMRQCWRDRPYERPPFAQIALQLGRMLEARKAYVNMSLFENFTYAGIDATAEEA

[3] = target: T3, panel of 442 kinases (Homo sapiens, UniProt P35916); conditions: kinase FLT4; for remaining activity at 1 µM: read-out: % of control at 1 µM
T3 construct: purchased Ambit Biosciences (scanMAXX KINOMEscan)
T3 sequence (P35916 25-1363): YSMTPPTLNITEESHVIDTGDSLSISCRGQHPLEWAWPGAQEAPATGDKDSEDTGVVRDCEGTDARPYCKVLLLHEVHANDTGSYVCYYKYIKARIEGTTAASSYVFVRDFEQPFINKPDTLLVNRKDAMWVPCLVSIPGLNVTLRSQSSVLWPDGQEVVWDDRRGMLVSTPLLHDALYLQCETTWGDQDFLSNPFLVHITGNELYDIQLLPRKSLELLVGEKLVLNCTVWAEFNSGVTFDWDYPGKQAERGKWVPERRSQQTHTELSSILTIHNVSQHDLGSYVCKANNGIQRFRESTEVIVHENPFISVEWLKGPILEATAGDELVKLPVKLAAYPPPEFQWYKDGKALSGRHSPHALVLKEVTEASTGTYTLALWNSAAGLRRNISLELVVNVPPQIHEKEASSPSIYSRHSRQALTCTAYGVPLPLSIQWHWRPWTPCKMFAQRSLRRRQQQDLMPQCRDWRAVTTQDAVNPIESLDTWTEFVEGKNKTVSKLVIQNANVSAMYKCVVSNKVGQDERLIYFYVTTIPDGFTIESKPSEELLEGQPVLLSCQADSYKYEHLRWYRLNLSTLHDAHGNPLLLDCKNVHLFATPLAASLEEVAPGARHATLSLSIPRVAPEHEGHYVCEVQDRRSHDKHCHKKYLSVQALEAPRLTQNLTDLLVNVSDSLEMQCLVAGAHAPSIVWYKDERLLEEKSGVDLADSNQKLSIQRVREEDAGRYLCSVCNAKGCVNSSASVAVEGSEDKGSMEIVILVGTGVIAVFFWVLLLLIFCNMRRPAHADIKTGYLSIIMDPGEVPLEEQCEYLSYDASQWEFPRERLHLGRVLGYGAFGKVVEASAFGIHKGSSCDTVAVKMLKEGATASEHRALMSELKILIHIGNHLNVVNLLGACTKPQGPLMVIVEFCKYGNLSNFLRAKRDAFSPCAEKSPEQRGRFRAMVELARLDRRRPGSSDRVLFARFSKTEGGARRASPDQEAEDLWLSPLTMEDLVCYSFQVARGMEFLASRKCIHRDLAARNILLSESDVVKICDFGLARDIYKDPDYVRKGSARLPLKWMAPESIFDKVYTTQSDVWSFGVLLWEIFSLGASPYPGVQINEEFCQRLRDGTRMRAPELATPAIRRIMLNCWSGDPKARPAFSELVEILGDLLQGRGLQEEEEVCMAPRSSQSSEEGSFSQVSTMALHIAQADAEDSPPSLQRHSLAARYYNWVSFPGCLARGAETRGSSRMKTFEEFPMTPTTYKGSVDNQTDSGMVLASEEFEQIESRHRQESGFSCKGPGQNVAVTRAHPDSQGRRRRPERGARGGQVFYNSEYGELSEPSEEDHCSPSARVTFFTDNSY

[4] = target: T4, panel of 442 kinases (Homo sapiens, UniProt Q14164); conditions: kinase IKK-epsilon; for remaining activity at 1 µM: read-out: % of control at 1 µM
T4 construct: purchased Ambit Biosciences (scanMAXX KINOMEscan)
T4 sequence (Q14164 1-716): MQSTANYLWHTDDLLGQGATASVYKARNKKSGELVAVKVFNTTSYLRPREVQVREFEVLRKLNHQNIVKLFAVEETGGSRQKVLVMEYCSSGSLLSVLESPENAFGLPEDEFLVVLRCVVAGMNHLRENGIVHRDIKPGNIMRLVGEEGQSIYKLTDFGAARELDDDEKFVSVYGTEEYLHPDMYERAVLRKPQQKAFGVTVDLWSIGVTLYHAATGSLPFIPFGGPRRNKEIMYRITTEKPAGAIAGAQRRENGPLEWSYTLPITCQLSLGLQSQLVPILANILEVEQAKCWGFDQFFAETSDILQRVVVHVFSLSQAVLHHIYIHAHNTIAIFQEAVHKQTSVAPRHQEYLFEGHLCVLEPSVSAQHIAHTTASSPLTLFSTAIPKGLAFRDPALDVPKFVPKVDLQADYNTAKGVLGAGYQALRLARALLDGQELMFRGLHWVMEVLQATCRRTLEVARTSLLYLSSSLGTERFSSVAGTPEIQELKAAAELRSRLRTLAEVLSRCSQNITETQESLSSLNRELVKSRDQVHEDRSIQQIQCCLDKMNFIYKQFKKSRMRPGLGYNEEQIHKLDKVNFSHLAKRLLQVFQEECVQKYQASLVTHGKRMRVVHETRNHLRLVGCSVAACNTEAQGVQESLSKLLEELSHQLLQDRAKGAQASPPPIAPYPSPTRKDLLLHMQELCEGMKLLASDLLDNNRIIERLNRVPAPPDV

[5] = target: T5, panel of 442 kinases (Homo sapiens, UniProt Q16566); conditions: CAMK4; for remaining activity at 1 µM: read-out: % of control at 1 µM
T5 construct: purchased Ambit Biosciences (scanMAXX KINOMEscan)
T5 sequence (Q16566 1-473): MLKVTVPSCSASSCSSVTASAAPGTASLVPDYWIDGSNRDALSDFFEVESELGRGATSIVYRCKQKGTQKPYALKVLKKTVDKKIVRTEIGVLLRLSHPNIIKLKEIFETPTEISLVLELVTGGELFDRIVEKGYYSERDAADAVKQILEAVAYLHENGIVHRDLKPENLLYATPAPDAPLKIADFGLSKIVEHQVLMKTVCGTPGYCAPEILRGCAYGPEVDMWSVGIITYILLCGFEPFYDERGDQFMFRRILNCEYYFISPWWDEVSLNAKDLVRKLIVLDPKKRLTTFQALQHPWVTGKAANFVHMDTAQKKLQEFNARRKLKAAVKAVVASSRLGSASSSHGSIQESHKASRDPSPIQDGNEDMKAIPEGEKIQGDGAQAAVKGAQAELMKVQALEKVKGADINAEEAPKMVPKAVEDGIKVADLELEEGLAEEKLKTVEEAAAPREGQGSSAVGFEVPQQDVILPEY

[6] = target: T6, panel of 442 kinases (Homo sapiens, UniProt Q9UEE5); conditions: DRAK1; for remaining activity at 1 µM: read-out: % of control at 1 µM
T6 construct: purchased Ambit Biosciences (scanMAXX KINOMEscan)
T6 sequence (Q9UEE5 1-414): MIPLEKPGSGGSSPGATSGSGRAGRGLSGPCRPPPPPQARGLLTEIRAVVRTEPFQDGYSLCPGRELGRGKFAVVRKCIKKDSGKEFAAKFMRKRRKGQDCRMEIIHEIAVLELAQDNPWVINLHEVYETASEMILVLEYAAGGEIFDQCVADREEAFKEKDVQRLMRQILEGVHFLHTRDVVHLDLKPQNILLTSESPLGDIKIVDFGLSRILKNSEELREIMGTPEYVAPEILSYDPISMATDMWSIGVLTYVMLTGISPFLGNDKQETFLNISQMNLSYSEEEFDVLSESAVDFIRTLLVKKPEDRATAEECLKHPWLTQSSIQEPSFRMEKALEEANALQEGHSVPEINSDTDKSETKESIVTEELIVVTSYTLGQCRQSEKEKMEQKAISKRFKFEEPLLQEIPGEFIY

[7] = target: T7, panel of 442 kinases (Homo sapiens, UniProt Q9Y243); conditions: AKT3; for remaining activity at 1 µM: read-out: % of control at 1 µM
T7 construct: purchased Ambit Biosciences (scanMAXX KINOMEscan)
T7 sequence (Q9Y243 whole entry): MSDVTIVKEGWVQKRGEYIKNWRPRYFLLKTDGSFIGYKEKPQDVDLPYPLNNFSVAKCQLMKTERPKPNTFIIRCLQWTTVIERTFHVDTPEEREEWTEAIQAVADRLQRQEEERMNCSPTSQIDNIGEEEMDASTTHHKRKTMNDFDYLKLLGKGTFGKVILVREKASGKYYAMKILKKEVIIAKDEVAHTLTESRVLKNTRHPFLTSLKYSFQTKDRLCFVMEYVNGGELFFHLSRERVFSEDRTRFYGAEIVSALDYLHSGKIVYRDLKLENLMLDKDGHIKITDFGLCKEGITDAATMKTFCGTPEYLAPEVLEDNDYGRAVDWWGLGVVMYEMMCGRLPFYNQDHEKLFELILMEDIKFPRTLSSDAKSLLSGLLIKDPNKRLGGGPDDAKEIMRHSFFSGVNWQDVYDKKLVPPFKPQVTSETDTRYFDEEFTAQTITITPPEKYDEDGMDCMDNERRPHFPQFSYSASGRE

[8] = target: T8, panel of 442 kinases (Homo sapiens, UniProt Q9Y2U5); conditions: kinase MAP3K2; for remaining activity at 1 µM: read-out: % of control at 1 µM
T8 construct: purchased Ambit Biosciences (scanMAXX KINOMEscan)
T8 sequence (Q9Y2U5 1-619): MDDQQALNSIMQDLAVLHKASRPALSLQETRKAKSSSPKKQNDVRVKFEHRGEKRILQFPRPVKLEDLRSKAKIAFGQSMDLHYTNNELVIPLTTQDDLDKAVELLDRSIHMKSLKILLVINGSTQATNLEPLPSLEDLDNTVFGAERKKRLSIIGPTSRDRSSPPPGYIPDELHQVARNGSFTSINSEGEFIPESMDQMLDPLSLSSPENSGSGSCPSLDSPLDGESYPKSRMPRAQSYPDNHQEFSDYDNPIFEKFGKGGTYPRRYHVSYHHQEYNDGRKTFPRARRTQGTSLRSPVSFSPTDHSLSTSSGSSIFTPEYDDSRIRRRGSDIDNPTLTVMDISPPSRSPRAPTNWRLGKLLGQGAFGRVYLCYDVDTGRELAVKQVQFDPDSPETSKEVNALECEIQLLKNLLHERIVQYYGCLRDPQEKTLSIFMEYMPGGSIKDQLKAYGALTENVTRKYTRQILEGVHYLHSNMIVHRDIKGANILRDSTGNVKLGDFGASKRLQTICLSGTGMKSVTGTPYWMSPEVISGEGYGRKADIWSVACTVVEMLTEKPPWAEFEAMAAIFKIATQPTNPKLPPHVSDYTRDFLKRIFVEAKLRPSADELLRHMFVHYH

[9] = target: T9, panel of 442 kinases (Homo sapiens, UniProt Q9Y4K4); conditions: kinase MAP4K5; for remaining activity at 1 µM: read-out: % of control at 1 µM
T9 construct: purchased Ambit Biosciences (scanMAXX KINOMEscan)
T9 sequence (Q9Y4K4 whole entry): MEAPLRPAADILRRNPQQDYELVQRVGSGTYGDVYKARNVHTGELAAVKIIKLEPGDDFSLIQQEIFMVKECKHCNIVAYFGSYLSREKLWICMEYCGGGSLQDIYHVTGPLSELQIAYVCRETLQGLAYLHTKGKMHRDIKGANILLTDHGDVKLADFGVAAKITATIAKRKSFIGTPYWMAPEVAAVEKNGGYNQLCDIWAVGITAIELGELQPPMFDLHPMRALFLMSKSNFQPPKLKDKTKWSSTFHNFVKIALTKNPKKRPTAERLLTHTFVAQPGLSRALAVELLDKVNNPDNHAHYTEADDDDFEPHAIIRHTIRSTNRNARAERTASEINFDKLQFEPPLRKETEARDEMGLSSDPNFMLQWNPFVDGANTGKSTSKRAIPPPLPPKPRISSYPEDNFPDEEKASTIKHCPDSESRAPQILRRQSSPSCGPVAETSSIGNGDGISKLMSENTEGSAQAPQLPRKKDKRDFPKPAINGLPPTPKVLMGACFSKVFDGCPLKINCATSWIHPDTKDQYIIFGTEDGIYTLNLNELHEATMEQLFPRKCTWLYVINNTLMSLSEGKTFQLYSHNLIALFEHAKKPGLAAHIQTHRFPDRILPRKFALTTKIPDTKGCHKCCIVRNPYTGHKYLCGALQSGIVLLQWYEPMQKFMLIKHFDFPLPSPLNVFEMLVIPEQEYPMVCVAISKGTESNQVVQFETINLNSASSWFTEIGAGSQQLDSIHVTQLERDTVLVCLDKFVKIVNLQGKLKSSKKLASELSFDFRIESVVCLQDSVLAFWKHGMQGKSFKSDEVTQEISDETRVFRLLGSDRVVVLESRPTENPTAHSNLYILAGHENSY

[10] = 10 µM, read-out: % of control at 10 µM

T1 sequence (O60331 whole entry): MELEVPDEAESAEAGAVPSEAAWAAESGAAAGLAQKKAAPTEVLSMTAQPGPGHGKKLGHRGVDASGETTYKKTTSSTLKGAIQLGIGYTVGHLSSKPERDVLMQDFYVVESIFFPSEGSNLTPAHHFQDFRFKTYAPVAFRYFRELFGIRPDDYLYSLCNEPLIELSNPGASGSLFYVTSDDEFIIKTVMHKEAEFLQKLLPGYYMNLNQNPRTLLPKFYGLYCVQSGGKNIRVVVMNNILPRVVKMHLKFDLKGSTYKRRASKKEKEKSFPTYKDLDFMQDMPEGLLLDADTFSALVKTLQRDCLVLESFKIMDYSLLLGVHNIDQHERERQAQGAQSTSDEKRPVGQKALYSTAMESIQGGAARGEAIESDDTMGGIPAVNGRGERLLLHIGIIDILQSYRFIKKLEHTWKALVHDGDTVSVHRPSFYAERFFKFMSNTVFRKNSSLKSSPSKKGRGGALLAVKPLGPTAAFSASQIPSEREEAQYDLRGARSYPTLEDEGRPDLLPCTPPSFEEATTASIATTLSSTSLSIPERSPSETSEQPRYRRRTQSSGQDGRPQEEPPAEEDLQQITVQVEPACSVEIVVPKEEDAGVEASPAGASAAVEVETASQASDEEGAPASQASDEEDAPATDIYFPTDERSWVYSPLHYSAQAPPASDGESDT

SMILES	remaining activity at 1 µM [1]	remaining activity at 10 µM [1, 10]	remaining activity at 1 µM [2]	remaining activity at 10 µM ([2]; 10 µM, read-out: TIE1 (% of control at 10 µM))	remaining activity at 1 µM [3]	remaining activity at 10 µM [3, 10]	remaining activity at 1 µM [4]	remaining activity at 10 µM [4, 10]	remaining activity at 1 µM [5]	remaining activity at 10 µM [5, 10]	remaining activity at 1 µM [6]	remaining activity at 10 µM [6, 10]	remaining activity at 1 µM [7]	remaining activity at 10 µM [7, 10]	remaining activity at 1 µM [8]	remaining activity at 10 µM [8, 10]	remaining activity at 1 µM [9]	remaining activity at 10 µM [9, 10]
Nc1cc(C(F)(F)F)c(-c2cc(N3CCOCC3)nc(N3CCOCC3)n2)cn1 [Buparlisib]	55%	63%	96%	100%	99%	100%	78%	100%	89%	100%	100%	100%	84%	92%	100%	100%	96%	100%
Cn1c(=O)n(-c2ccc(C(C)(C)C#N)cc2)c2c3cc(-c4cnc5ccccc5c4)ccc3ncc21 [Dactolisib, 2-methyl-2-[4-(3-methyl-2-oxo-8-quinolin-3-yl-2,3-dihydroimidazo[4,5-c]quinolin-1-yl)-phenyl] propionitrile]	100%	–	100%	–	100%	–	100%	–	–	–	91%	–	84%	–	72%	–	55%	–
COc1ncc(-c2ccc3nccc(-c4ccnnc4)c3c2)cc1NS(=O)(=O)c1ccc(F)cc1F [Omipalisib]	100%	–	100%	–	100%	–	100%	–	100%	–	100%	–	100%	–	100%	–	100%	–
FC(F)c1nc2ccccc2n1-c1nc(N2CCOCC2)nc(N2CCOCC2)n1 [ZSTK474, 2-(difluoromethyl)-1-[4,6-di(4-morpholinyl)-1,3,5-triazin-2-yl]-1H-benzimidazole]	100%	–	88%	–	96%	–	100%	–	92%	–	90%	–	66%	–	74%	–	99%	–
